Source: PMC9962735, “Synthesis and Cytotoxic Activity of the Derivatives of N-(Purin-6-yl)aminopolymethylene Carboxylic Acids and Related Compounds” (Molecules, 2023)

Tests used:
[1] = MTT cytotoxicity assay, Jurkat; format: cell-based, human; settings: human, read-out: SCI (selective cytotoxicity index)
Text: (§1) The cytotoxicity of the test compounds was studied using the MTT assay against a number of cell lines: CT-26 murine colon carcinoma, 4T1 murine mammary carcinoma, MDA-MB-231 human breast adenocarcinoma, COLO201 human colorectal adenocarcinoma, HepG2 human hepatocellular carcinoma, A549 human non-small-cell lung carcinoma, SK-BR-3 human breast adenocarcinoma, SNU-1 human gastric carcinoma, Jurkat human acute T-lymphoblastic leukemia, and WI-38 human lung fibroblasts (normal cells). Doxorubicin (Dox) was used as a reference drug. Cells were incubated with test compounds for 72 h.
(§2) Cells were seeded in flat-bottomed 96-well plates at 10,000 cells per well (for A549, SNU-1, WI-38, CT-26, MDA-MB-231, 4T1, and HepG2 cells) or 20,000 cells per well (for SK-BR-3, Jurkat, and COLO201 cells) and cultivated in complete culture mediums (for composition of each medium, see the Supplementary Materials, Table S1) in a CO2 incubator at 37 °C. At the first stage of this study, the test compounds dissolved in DMSO were added to the wells with cells at final concentrations from 1 × 10^–4 to 1 × 10^–10 mol/L (A549, SK-BR-3, SNU-1, Jurkat, and WI-38) or 1 × 10^–3 to 1 × 10^–8 mol/L (CT-26, MDA-MB-231, 4T1, COLO201, and HepG2); DMSO concentration in the wells was finally 1%. A complete cultural medium and DMSO were added to the control wells at the same concentration as in the experimental wells; 0.1% Triton X-100 solution (10 µL) was added to the corresponding wells as a non-specific positive control. After adding the test compounds, the cells were incubated for 72 h in an atmosphere containing 5% CO2. After that, the nutrient medium was removed from each well (in the case of SK-BR-3, Jurkat, and COLO201, plates were pre-centrifuged at 1500 rpm for 6 min). A solution of the commercial anticancer agent Doxorubicin (Dox, Sigma-Aldrich, St. Louis, MO, USA) in DMSO was used as a reference drug. Then, 150 µL of a complete medium with the MTT reagent (PanEco, Moscow, Russia) at a concentration of 0.5 mg/mL was added and incubated for 2 h. Formazan crystals were dissolved in DMSO (200 µL) and the absorbance in the wells was measured at 540 nm and a reference wavelength of 650 nm (Sunrise, Tecan, Groding, Austria). Experiments were performed in three parallel runs. Cell viability after incubation in the presence of test compounds was calculated in relation to cell viability in the control wells according to the Formula (1):Cell viability (%) = (Aexp/Ac) × 100,(1) where Aexp is the optical density of solutions in the wells containing test compounds; Ac is the optical density of solutions in control wells without test compounds. For detailed information on cell viability of various cell lines, see the Supplementary Materials, Figures S21–S26.
(§3) At the second stage of this study, in order to more accurately calculate the CC50 (the half maximal inhibitory concentration), the cytotoxic effect of test compounds was evaluated at concentrations close to CC50 found at the first stage. The study of the cytotoxic activity of each substance towards the cells of each line was carried out in triplicate; the mean value was used to calculate CC50. The CC50 values were determined by non-linear regression analysis using Graph-Pad Prism7.

[2] = system: Jurkat human acute T-lymphoblastic leukemia; assay: MTT cytotoxicity assay, Jurkat; format: cell-based; settings: Homo sapiens, Jurkat; for CC50: 72 h, 72 h incubation, MTT
Text: as §1, §2, §3

[3] = MTT cytotoxicity assay, SNU-1; format: cell-based, human; settings: human, read-out: SCI (selective cytotoxicity index)
Text: as §1, §2, §3

[4] = system: SNU-1 human gastric carcinoma; assay: MTT cytotoxicity assay, SNU-1; format: cell-based; settings: Homo sapiens; for CC50: SNU1, 72 h, SNU-1, 72 h incubation, MTT
Text: as §1, §2, §3

[5] = MTT cytotoxicity assay, WI-38 normal cells; format: cell-based; settings: human, WI-38 lung fibroblasts (normal cells); for CC50 at 72 h: WI-38, 72 h incubation, MTT
Text: as §1, §2, §3

[6] = MTT cytotoxicity assay, HepG2; format: cell-based, human; settings: human; CC50 of WI-38 divided by CC50 of HepG2; read-out: SCI (selective cytotoxicity index)
Text: as §1, §2, §3

[7] = system: HepG2 human hepatocellular carcinoma; assay: MTT cytotoxicity assay, HepG2; format: cell-based; settings: Homo sapiens; for CC50: HepG2, 72 h incubation, MTT, n = 3
Text: as §1, §2, §3

[8] = system: COLO201 human colorectal adenocarcinoma; assay: MTT cytotoxicity assay, COLO201; format: cell-based; settings: Homo sapiens, COLO 201; for CC50: COLO201, 72 h incubation, MTT, n = 3
Text: as §1, §2, §3

[9] = MTT cytotoxicity assay, COLO201; format: cell-based, human; settings: human; CC50 of WI-38 divided by CC50 of COLO201; read-out: SCI (selective cytotoxicity index)
Text: as §1, §2, §3

[10] = MTT cytotoxicity assay, CT-26; format: cell-based, murine; settings: mouse (CT-26) and human (WI-38); CC50 of WI-38 divided by CC50 of CT-26; read-out: SCI (selective cytotoxicity index)
Text: as §1, §2, §3

[11] = system: CT-26 murine colon carcinoma; assay: MTT cytotoxicity assay, CT-26; format: cell-based; settings: Mus musculus, CT26; for CC50: CT-26, 72 h incubation, MTT, n = 3
Text: as §1, §2, §3

[12] = MTT cytotoxicity assay, SK-BR-3; format: cell-based, human; settings: human, read-out: SCI (selective cytotoxicity index)
Text: as §1, §2, §3

[13] = system: SK-BR-3 human breast adenocarcinoma; assay: MTT cytotoxicity assay, SK-BR-3; format: cell-based; settings: Homo sapiens; for CC50: SK-BR-3, 72 h, SK-BR-3, 72 h incubation, MTT
Text: as §1, §2, §3

[14] = MTT cytotoxicity assay, A549; format: cell-based, human; settings: human, read-out: SCI (selective cytotoxicity index)
Text: as §1, §2, §3

[15] = system: A549 human non-small-cell lung carcinoma; assay: MTT cytotoxicity assay, A549; format: cell-based; settings: Homo sapiens; for CC50: A549, 72 h, A549, 72 h incubation, MTT
Text: as §1, §2, §3

[16] = MTT cytotoxicity assay, 4T1; format: cell-based, murine; settings: mouse (4T1) and human (WI-38); CC50 of WI-38 divided by CC50 of 4T1; read-out: SCI (selective cytotoxicity index)
Text: as §1, §2, §3

[17] = system: 4T1 murine mammary carcinoma; assay: MTT cytotoxicity assay, 4T1; format: cell-based; settings: Mus musculus; for CC50: 4T1, 72 h incubation, MTT, n = 3
Text: as §1, §2, §3

[18] = MTT cytotoxicity assay, MDA-MB-231; format: cell-based, human; settings: human; CC50 of WI-38 divided by CC50 of MDA-MB-231; read-out: SCI (selective cytotoxicity index)
Text: as §1, §2, §3

[19] = system: MDA-MB-231 human breast adenocarcinoma; assay: MTT cytotoxicity assay, MDA-MB-231; format: cell-based; settings: Homo sapiens; for CC50: MDA-MB-231, 72 h incubation, MTT, n = 3
Text: as §1, §2, §3

[20] = system: herpes simplex virus type 1 (HSV-1), including acyclovir-resistant HSV-1 strain; parameters: method as in doi:10.1002/ejoc.201900727, doi:10.1515/pac-2019-1214, doi:10.1007/s10593-021-02929-z; settings: HSV-1 including acyclovir-resistant strain; cited from earlier work
[21] = system: A549, SK-BR-3, SNU-1, Jurkat, WI-38 cell lines; assay: MTT cytotoxicity assay, cell line panel (result in words); format: cell-based, human; settings: 72 h
Text: as §1
The cytotoxicity of compounds 2a–c, 6, 7, and 9 was also studied using the MTT assay against a number of tumor cell lines: A549, SK-BR-3, SNU-1, Jurkat, as well as normal fibroblasts WI-38 (Table 3).
as §2, §3

[22] = Solubility in aqueous media; format: physicochemical; settings: result in words
[23] = CC50 of WI-38 divided by CC50 of Jurkat (Table 1)
[24] = CC50 of WI-38 divided by CC50 of SNU-1 (Table 1)
[25] = CC50 of WI-38 divided by CC50 of SK-BR-3 (Table 1)
[26] = CC50 of WI-38 divided by CC50 of A549 (Table 1)
[27] = CC50 of WI-38 divided by CC50 of Jurkat (Table 3)
[28] = CC50 of WI-38 divided by CC50 of SNU-1 (Table 3)
[29] = CC50 of WI-38 divided by CC50 of SK-BR-3 (Table 3)
[30] = CC50 of WI-38 divided by CC50 of A549 (Table 3)

Molecule `CC1COc2c(ccc(F)c2F)N1C(=O)CCCCCCCCCCCNc1ncnc2[nH]cnc12` (stereo not shown) [Compound 1e] has a selectivity ratio at 72 h [1, 23] of 18, a CC50 ([2]; n = 3 (Table 1)) of 4 µM and a viability at 100 µM ([2]; 1 × 10^–4 M, mean ± SD (n = 3), read-out: Cell viability) of 10 ± 4%. The selectivity ratio at 72 h [3, 24] was 12, the CC50 ([4]; n = 3 (Table 1)) was 6 µM and the viability at 100 µM ([4]; SNU1, SNU-1, 1 × 10^–4 M, mean ± SD (n = 3), read-out: Cell viability) was 5 ± 1%. The CC50 at 72 h ([5]; n = 3) was 71 µM, the viability at 72 h ([5]; WI-38, 1 × 10^–4 M, mean ± SD (n = 3), read-out: Cell viability) was 22 ± 7% and the selectivity ratio at 72 h [6] was 14. The viability at 100 µM ([7]; HepG2, 1 × 10^–4 M, mean ± SD (n = 3), read-out: Cell viability) was 2 ± 1%, the CC50 [7] was 5.2 µM and the viability at 100 µM ([8]; COLO201, 1 × 10^–4 M, mean ± SD (n = 3), read-out: Cell viability) was 2 ± 1%. The CC50 [8] was 3.5 µM, the selectivity ratio at 72 h [9] was 20 and the selectivity ratio at 72 h [10] was 21. For the same molecule, the viability at 100 µM ([11]; CT-26, 1 × 10^–4 M, mean ± SD (n = 3), read-out: Cell viability) was 3 ± 2%, the CC50 [11] was 3.4 µM and the selectivity ratio at 72 h [12, 25] was 0.83. The CC50 ([13]; n = 3 (Table 1)) was 85 µM, the viability at 100 µM ([13]; SK-BR-3, 1 × 10^–4 M, mean ± SD (n = 3), read-out: Cell viability) was 9 ± 2% and the selectivity ratio at 72 h [14, 26] was 0.95. For the same molecule, the CC50 ([15]; n = 3 (Table 1)) was 75 µM, the viability at 100 µM ([15]; A549, 1 × 10^–4 M, mean ± SD (n = 3)) was 6% and the selectivity ratio at 72 h [16] was 145. The viability at 100 µM ([17]; 4T1, 1 × 10^–4 M, mean ± SD (n = 3), read-out: Cell viability) was 2 ± 2%, the CC50 [17] was 0.49 µM and the selectivity ratio at 72 h [18] was 5.9. The viability at 100 µM ([19]; MDA-MB-231, 1 × 10^–4 M, mean ± SD (n = 3), read-out: Cell viability) was 7 ± 5% and the CC50 [19] was 12 µM.

For `CC1COc2c(ccc(F)c2F)N1C(=O)CCCCCCCCCCCCCCNc1ncnc2[nH]cnc12` (stereo not shown) [Compound 1f], the selectivity ratio at 72 h [1, 23] was 1.1, the CC50 ([2]; n = 3 (Table 1)) was 32 µM and the selectivity ratio at 72 h [3, 24] was 5.8. The CC50 ([4]; n = 3 (Table 1)) was 6 µM, the CC50 at 72 h ([5]; n = 3) was 35 µM and the selectivity ratio at 72 h [6] was 3.6. The CC50 [7] was 9.7 µM, the CC50 [8] was 1.3 µM and the selectivity ratio at 72 h [9] was 27. The selectivity ratio at 72 h [10] was 12, the CC50 [11] was 3 µM and the selectivity ratio at 72 h [12, 25] was 0.35. The CC50 ([13]; n = 3 (Table 1)) was 99 µM, the selectivity ratio at 72 h [14, 26] was 0.58 and the CC50 ([15]; n = 3 (Table 1)) was 60 µM. For the same molecule, the selectivity ratio at 72 h [16] was 15, the CC50 [17] was 2.3 µM and the selectivity ratio at 72 h [18] was 1.4. For the same molecule, the CC50 [19] was 28 µM.

For `CC1COc2c(ccc(F)c2F)N1C(=O)CCCCCNc1ncnc2[nH]cnc12` (stereo not shown) [Compound 1b], the selectivity ratio at 72 h [1, 27] was 1.5, the CC50 ([2]; n = 3 (Table 3)) was 67 µM and the selectivity ratio at 72 h [3, 28] was 4.9. The CC50 ([4]; n = 3 (Table 3)) was 20 µM, the CC50 at 72 h ([5]; n = 3 (Table 3)) was 98 µM and the “antiviral activity in vitro against HSV-1” value [20] was “high antiviral activity”. The selectivity ratio at 72 h [12, 29] was ≤ 0.98, the CC50 ([13]; n = 3 (Table 3)) was > 100 µM and the selectivity ratio at 72 h [14, 30] was 1.8. The CC50 ([15]; n = 3 (Table 3)) was 53 µM and the “cytotoxic activity (in words)” value [21] was “showed cytotoxic activity”.

`CC1COc2c(ccc(F)c2F)N1C(=O)CCCCCCCCCCNc1ncnc2c1ncn2COCCO` (stereo not shown) [Compound 7, 4-{11-[9-(2-Hydroxyethoxy)methylpurin-6-yl]aminoundecanoyl}-7,8-difluoro-3,4-dihydro-3-methyl-2H-[1,4]benzoxazine] gave a selectivity ratio at 72 h [1, 27] of 1.9, a CC50 ([2]; n = 3 (Table 3)) of 7.3 µM and a selectivity ratio at 72 h [3, 28] of 3.8. The CC50 ([4]; n = 3 (Table 3)) was 3.7 µM, the CC50 at 72 h ([5]; n = 3 (Table 3)) was 14 µM and the selectivity ratio at 72 h [12, 29] was 0.33. It also gave a CC50 ([13]; n = 3 (Table 3)) of 42 µM, a selectivity ratio at 72 h [14, 30] of 1.5 and a CC50 ([15]; n = 3 (Table 3)) of 9.4 µM. The “cytotoxic activity (in words)” value [21] was “approximately the same cytotoxicity as the most active compound 1d” and the “solubility in aqueous media” value [22] was “not possible to achieve a significant increase in the solubility”.
